IC50 and GI50 data for twelve compounds are collected here from US7820646B2, “Cyclized derivatives as Eg-5 inhibitors” (Novartis Vaccines and Diagnostics, Inc., priority 2007, dated 2010).

pIC50: −log10 of the molar value.

The target of test [1] is T1, motor domain of human KSP (Eg 5, KNSL1) (Homo sapiens, UniProt P52732).
T1 construct: KSP motor protein (i.e., the KSP motor domain); made in house
T1 sequence (P52732 18-359 limits assumed): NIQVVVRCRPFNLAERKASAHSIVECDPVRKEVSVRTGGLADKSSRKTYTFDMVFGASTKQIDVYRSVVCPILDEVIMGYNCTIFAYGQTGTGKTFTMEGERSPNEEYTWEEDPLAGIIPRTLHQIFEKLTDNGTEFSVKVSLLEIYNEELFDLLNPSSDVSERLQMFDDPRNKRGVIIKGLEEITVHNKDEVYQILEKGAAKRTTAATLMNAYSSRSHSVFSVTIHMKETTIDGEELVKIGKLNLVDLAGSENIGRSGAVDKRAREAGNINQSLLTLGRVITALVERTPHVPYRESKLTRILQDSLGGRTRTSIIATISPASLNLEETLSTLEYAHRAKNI
Nature of the test: Assay for determining KSP activity (microtubule-stimulated ATPase, Biomol Green). As to conditions: KSP motor domain 45 nM, microtubules 35 μg/mL, 1 hour at RT; read-out: Biochemical Activity IC50. From the text:
This example provides a representative in vitro assay for determining KSP activity in vitro. Purified microtubules obtained from bovine brain were purchased from Cytoskeleton Inc. (Denver, Colo., USA). The motor domain of human KSP (Eg 5, KNSL1) was cloned, expressed, and purified to greater than 95% homogeneity. Biomol Green was purchased from Affinity Research Products Ltd. (Matford Court, Exeter, Devon, United Kingdom). Microtubules and KSP motor protein (i.e., the KSP motor domain) were diluted in assay buffer (20 mM Tris-HCl (pH 7.5), 1 mM MgCl2, 10 mM DTT and 0.25 mg/mL BSA) to a final concentration of 35 μg/mL microtubules and 45 nM KSP. The microtubule/KSP mixture was then pre-incubated at 37° C. for 10 min to promote the binding of KSP to microtubules.
To each well of the testing plate (384-well plate) containing 1.25 μL of inhibitor or test compound in DMSO (or DMSO only in the case of controls) were added 25 μL of ATP solution (ATP diluted to a concentration of 300 μM in assay buffer) and 25 μL of the above-described microtubule/KSP solution. The plates were incubated at RT for 1 hour. Following incubation, 65 μL of Biomol Green (a malachite green-based dye that detects the release of inorganic phosphate) was added to each well. The plates were incubated for an additional 5-10 minutes then the absorbance at 630 nm was determined using a Victor II plate reader. The amount of absorbance at 630 nm corresponded to the amount of KSP activity in the samples. The IC50 of each inhibitor or test compound was then determined based on the decrease in absorbance at 630 nm at each concentration, via nonlinear regression using either XLFit for Excel or Prism data analysis software by GraphPad Software Inc.

In the next test the test system is HCT-15 colon carcinoma. The experiment in a line: Inhibition of cellular proliferation in tumor cell lines (CellTiter Glo), HCT-15. It counts as cell-based. As to conditions: Homo sapiens; HCT-15, 72 hours of continuous compound exposure; read-out: Cell Base Activity GI50 HCT-15. The protocol:
(§1) Cells are plated in 96-well plates at densities of about 500 cells per well of a 96-well plate and are allowed to grow for 24 hours. The cells are then treated with various concentrations of compounds for 72 hours. Then, 100 μl of CellTiter Glo is added. CellTiter Glo is a tetrazolium-based assay using the reagent 3-(4,5-dimethylthiazol-2-yl) 5-(3-carboxymethoxyphenyl)-2-(4-sulfophenyl)-2H-tetrazolium (MTS) (U.S. Pat. No. 5,185,450) (see Promega product catalog #G3580, CellTiter 96 Aqueous One Solution Cell Proliferation Assay). The cells are then incubated in the dark for 30 minutes. The amount of luminescence is determined for each well using a Walloc Trilux plate reader, which correlates with the number of cells per well. The number of viable cells in the wells that receive only DMSO (0.5%) serve as an indication of 0% inhibition, while wells without cells serve as 100% inhibition of cell growth. The compound concentration that results in a 50% growth inhibition (GI50) is determined graphically from sigmoidal dose-response curves of log-transformed dose values versus cell counts (percent of control) at 72 hours of continuous compound exposure.
(§2) The cell lines used are listed below.
(§3) The cell proliferation assay is performed as described above.

A further test deals with HCT-116 colon carcinoma. Nature of the test: Inhibition of cellular proliferation in tumor cell lines (CellTiter Glo), HCT-116. It is filed as cell-based. As to conditions: Homo sapiens; HCT-116, 72 hours of continuous compound exposure; read-out: Cell Base Activity GI50 HCT-116. Here is the method:
as §1, §2, §3

The next test deals with parental cell line. The experiment in a line: Inhibition of cellular proliferation in tumor cell lines (CellTiter Glo), KB3.1. As to conditions: Homo sapiens, KB 3-1; KB3.1, 72 hours of continuous compound exposure; read-out: Cell Base Activity GI50 KB3.1. It is filed as cell-based. The protocol:
as §1, §2, §3

Test [2] deals with KB8.5 (KB85 - p-glycoprotein associated multi-drug resistant cell line). The experiment in a line: Inhibition of cellular proliferation in tumor cell lines (CellTiter Glo), KB8.5. It counts as cell-based. As to conditions: KB8.5, 72 hours of continuous compound exposure; read-out: Cell Base Activity GI50 KB8.5. The protocol:
as §1, §2, §3

On to `CC(C)[C@H](c1nc(-c2cccc(Cl)c2)cn1Cc1ccccc1)N1C[C@H](CN)OCC1=O` [Compound 9, (6S)-6-(aminomethyl)-4-{(1R)-1-[1-benzyl-4-(3-chlorophenyl)-1H-imidazol-2-yl]-2-methylpropyl}morpholin-3-one], for which the pIC50 in test [1] is under 6.00. The GI50 was 0.1 to 1 µM in the test on HCT-15 colon carcinoma, 0.1 to 1 µM in the test on HCT-116 colon carcinoma, 0.1 to 1 µM in the test on parental cell line and over 1 µM in test [2].
Regarding `C[C@@H]1O[C@H](CN)CN([C@@H](c2nc(-c3cccc(F)c3)cn2Cc2ccccc2)C(C)(C)C)C1=O` [Compound 14, (2S,6R)-6-(aminomethyl)-4-{(1R)-1-[1-benzyl-4-(3-fluorophenyl)-1H-imidazol-2-yl]-2,2-dimethylpropyl}-2-methylmorpholin-3-one], the pIC50 in test [1] is under 6.00. Besides, the GI50 (in the test with HCT-15 colon carcinoma; in the test on HCT-116 colon carcinoma; with parental cell line; in test [2]) was over 1 µM in each case.
With `C[C@H]1O[C@H](CN)CN([C@@H](c2nc(-c3cccc(F)c3)cn2Cc2ccccc2)C(C)(C)C)C1=O` [Compound 15, (2R,6R)-6-(aminomethyl)-4-{(1R)-1-[1-benzyl-4-(3-fluorophenyl)-1H-imidazol-2-yl]-2,2-dimethylpropyl}-2-methylmorpholin-3-one], the pIC50 in test [1] was 6.00 to 7.00. Besides, the GI50 (in the test on HCT-15 colon carcinoma; in the test on HCT-116 colon carcinoma; in the test on parental cell line; in test [2]) was over 1 µM throughout.
Take `CC(C)(C)[C@H](c1nc(-c2ccccc2)cn1Cc1ccccc1)N1C[C@@H](CN)NC(=O)C1=O` [Compound 16, (5R)-5-(aminomethyl)-1-[(1R)-1-(1-benzyl-4-phenyl-1H-imidazol-2-yl)-2,2-dimethylpropyl]piperazine-2,3-dione]: the pIC50 in test [1] was at least 7.00. Moreover, the GI50 in the test with HCT-15 colon carcinoma is over 1 µM; in the test on HCT-116 colon carcinoma it was 0.1 to 1 µM; in the test with parental cell line it was 0.1 to 1 µM; in test [2], over 1 µM.
As to `CC(C)(C)[C@H](c1nc(-c2ccccc2)cn1Cc1ccccc1)N1C[C@H](CN)NC(=O)C1=O` [Compound 17, (5S)-5-(aminomethyl)-1-[(1R)-1-(1-benzyl-4-phenyl-1H-imidazol-2-yl)-2,2-dimethylpropyl]piperazine-2,3-dione], in test [1], the pIC50 is at least 7.00. The GI50 (in the test with HCT-15 colon carcinoma; in the test with HCT-116 colon carcinoma; with parental cell line; in test [2]) was over 1 µM each time.
Take `CN1C(=O)C(=O)N([C@@H](c2nc(-c3ccccc3)cn2Cc2ccccc2)C(C)(C)C)C[C@H]1CN` [Compound 18, (5R)-5-(aminomethyl)-1-[(1R)-1-(1-benzyl-4-phenyl-1H-imidazol-2-yl)-2,2-dimethylpropyl]-4-methylpiperazine-2,3-dione]: the pIC50 in test [1] is at least 7.00. Moreover, the GI50 with HCT-15 colon carcinoma is 0.1 to 1 µM; in the test with HCT-116 colon carcinoma it was 0.1 to 1 µM; in the test with parental cell line, 0.1 to 1 µM; in test [2] it was over 1 µM.
Take `CC(C)(C)[C@H](c1nc(-c2ccccc2)cn1Cc1ccccc1)N1C[C@@H](CN)NCCC1=O` [Compound 20, (2R)-2-(aminomethyl)-4-[(1R)-1-(1-benzyl-4-phenyl-1H-imidazol-2-yl)-2,2-dimethylpropyl]-1,4-diazepan-5-one]: the pIC50 in test [1] is 6.00 to 7.00. For the same compound, the GI50 was over 1 µM with HCT-15 colon carcinoma, 0.1 to 1 µM in the test with HCT-116 colon carcinoma, 0.1 to 1 µM in the test with parental cell line and over 1 µM in test [2].
Regarding `CC(C)(C)[C@H](c1nc(-c2ccccc2)cn1Cc1ccccc1)N1C[C@@H](CN)OCCC1=O` [Compound 23, (2R)-2-(aminomethyl)-4-[(1R)-1-(1-benzyl-4-phenyl-1H-imidazol-2-yl)-2,2-dimethylpropyl]-1,4-oxazepan-5-one], in test [1], the negative logarithm of the IC50 (pIC50) is 6.00 to 7.00. Besides, the concentration for 50% growth inhibition (GI50) is over 1 µM in the test on HCT-15 colon carcinoma, 0.1 to 1 µM with HCT-116 colon carcinoma, over 1 µM with parental cell line and 0.1 to 1 µM in test [2].
`CC(C)(C)[C@H](c1nc(-c2ccccc2)cn1Cc1ccccc1)N1C[C@@H](CN)COCC1=O` [Compound 25, (6R)-6-(aminomethyl)-4-[(1R)-1-(1-benzyl-4-phenyl-1H-imidazol-2-yl)-2,2-dimethylpropyl]-1,4-oxazepan-3-one]: the pIC50 in test [1] was at least 7.00. Besides, the GI50 with HCT-15 colon carcinoma is 0.1 to 1 µM; in the test on HCT-116 colon carcinoma, at most 0.1 µM; in the test on parental cell line, at most 0.1 µM; in test [2], 0.1 to 1 µM.
With `CC(C)(C)[C@H](c1nc(-c2cccc(F)c2)cn1Cc1ccccc1)N1C[C@@H](CN)COCC1=O` [Compound 27, (6R)-6-(aminomethyl)-4-{(1R)-1-[1-benzyl-4-(3-fluorophenyl)-1H-imidazol-2-yl]-2,2-dimethylpropyl}-1,4-oxazepan-3-one], in test [1], the pIC50 is at least 7.00. Besides, the GI50 is 0.1 to 1 µM in the test on HCT-15 colon carcinoma, at most 0.1 µM in the test with HCT-116 colon carcinoma, at most 0.1 µM in the test with parental cell line and at most 0.1 µM in test [2].
As for `CC(C)(C)[C@H](c1nc(-c2cccc(F)c2)cn1Cc1cccc(F)c1)N1C[C@@H](CN)COCC1=O` [Compound 28, (6R)-6-(aminomethyl)-4-{(1R)-1-[1-(3-fluorobenzyl)-4-(3-fluorophenyl)-1H-imidazol-2-yl]-2,2-dimethylpropyl}-1,4-oxazepan-3-one], the pIC50 in test [1] is at least 7.00. In addition, the GI50 (in the test with HCT-15 colon carcinoma; in the test with HCT-116 colon carcinoma; in the test on parental cell line; in test [2]) was at most 0.1 µM each time.
In the case of `CC(C)(C)[C@H](c1nc(-c2cccc(F)c2)cn1Cc1cccc(F)c1)N1C[C@H](CN)COCC1=O` [Compound 29, (6S)-6-(aminomethyl)-4-{(1R)-1-[1-(3-fluorobenzyl)-4-(3-fluorophenyl)-1H-imidazol-2-yl]-2,2-dimethylpropyl}-1,4-oxazepan-3-one], the pIC50 in test [1] is at least 7.00. The GI50 (with HCT-15 colon carcinoma; with HCT-116 colon carcinoma; in the test on parental cell line; in test [2]) was 0.1 to 1 µM throughout.
